Test results published in ChEMBL document CHEMBL1770109, “SAR studies of pyridazinone derivatives as novel glucan synthase inhibitors” (Bioorg Med Chem Lett, 2011).
Converted amounts (≈) assume the structure as drawn.

Experiments:
[1] = biological target: Beta-1,3-glucan synthase (Candida albicans, UniProt O13428); assay: Inhibition of Candida albicans BWP17 1,3-beta-glucan synthase
[2] = test system: Nakaseomyces glabratus; assay: Antifungal activity against Candida glabrata C624; format: functional; details: read-out: MIC100
[3] = test system: Candida albicans; assay: Antifungal activity against Candida albicans C693; format: functional; details: for MIC: read-out: MIC100
[4] = AUC (0 to 6 hrs) in rat at 10 mg/kg, po; format: ADME, organism-based; parameters: time < 6 hr, dose 10 mg/kg, route oral; details: plasma

Chain of Beta-1,3-glucan synthase (O13428 whole entry): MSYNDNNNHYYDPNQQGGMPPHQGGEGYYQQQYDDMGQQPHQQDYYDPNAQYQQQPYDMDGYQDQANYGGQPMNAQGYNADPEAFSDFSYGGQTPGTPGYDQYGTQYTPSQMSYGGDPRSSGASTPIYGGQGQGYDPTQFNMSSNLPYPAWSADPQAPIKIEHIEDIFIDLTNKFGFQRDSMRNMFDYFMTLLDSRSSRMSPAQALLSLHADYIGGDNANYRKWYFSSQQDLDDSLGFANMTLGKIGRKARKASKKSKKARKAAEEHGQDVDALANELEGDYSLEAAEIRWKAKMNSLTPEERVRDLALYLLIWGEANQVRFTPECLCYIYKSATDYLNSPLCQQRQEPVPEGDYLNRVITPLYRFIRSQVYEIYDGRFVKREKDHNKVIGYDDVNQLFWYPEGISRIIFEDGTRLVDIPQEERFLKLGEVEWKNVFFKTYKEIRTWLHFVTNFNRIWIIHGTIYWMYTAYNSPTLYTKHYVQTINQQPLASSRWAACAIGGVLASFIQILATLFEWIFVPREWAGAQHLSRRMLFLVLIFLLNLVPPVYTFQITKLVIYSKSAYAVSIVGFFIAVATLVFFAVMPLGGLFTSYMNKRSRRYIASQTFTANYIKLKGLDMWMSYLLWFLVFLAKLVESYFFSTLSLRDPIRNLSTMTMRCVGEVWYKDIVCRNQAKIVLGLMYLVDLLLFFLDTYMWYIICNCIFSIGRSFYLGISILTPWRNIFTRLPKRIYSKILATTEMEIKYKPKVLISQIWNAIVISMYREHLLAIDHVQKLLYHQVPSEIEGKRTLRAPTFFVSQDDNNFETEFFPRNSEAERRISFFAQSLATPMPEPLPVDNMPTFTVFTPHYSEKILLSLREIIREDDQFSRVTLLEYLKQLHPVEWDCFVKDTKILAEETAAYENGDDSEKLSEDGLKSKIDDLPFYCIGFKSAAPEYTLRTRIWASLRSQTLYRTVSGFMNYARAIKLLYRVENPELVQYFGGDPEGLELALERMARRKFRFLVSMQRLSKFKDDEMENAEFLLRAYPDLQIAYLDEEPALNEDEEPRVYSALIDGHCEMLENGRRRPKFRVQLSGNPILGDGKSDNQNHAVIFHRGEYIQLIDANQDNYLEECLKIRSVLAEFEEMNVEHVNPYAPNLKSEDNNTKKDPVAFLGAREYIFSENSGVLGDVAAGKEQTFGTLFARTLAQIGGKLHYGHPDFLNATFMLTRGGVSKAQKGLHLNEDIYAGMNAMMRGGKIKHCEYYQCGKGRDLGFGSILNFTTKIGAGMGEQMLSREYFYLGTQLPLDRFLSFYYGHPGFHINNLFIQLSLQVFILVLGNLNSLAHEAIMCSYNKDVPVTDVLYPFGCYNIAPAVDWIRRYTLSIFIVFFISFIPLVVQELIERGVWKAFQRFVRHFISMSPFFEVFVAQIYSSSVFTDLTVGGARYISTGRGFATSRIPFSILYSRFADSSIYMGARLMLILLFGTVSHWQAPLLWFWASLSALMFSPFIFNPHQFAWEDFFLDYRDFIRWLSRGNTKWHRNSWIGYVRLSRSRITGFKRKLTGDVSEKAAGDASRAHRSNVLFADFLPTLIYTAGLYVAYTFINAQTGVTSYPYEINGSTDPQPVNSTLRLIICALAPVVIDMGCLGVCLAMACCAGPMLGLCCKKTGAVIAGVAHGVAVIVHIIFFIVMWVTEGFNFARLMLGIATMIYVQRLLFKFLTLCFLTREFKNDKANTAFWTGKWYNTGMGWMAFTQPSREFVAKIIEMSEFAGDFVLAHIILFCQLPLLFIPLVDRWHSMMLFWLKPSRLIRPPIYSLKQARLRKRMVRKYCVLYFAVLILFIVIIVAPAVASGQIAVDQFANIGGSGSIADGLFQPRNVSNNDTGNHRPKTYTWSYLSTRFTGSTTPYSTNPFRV

Row | AUC(0-t) at 6 h [4] [µg·h/mL] | Structure (SMILES) | IC50 [1] [µM] | MIC [2] [mg/L] | MIC [3] [mg/L] | MIC50 [3] [mg/L]
1 | – | CCOCCOc1cc(-c2ccccc2)nnc1N1CCN(S(=O)(=O)Cc2ccccc2)CC1 | 76.7 | > 25 | > 25 | –
2 | – | O=c1c(OC2CCCC2)c(N2CCN(S(=O)(=O)Cc3ccccc3)CC2)cnn1-c1cccc(Cl)c1 | 0.378 | 0.02 (≈ 0.0378 µM) | 0.39 (≈ 0.737 µM) | –
3 | – | N#Cc1ccc(CS(=O)(=O)N2CCN(c3cnn(-c4cccc(Cl)c4)c(=O)c3OC3CCCC3)CC2)cc1 | – | 0.02 (≈ 0.0361 µM) | 0.13 (≈ 0.235 µM) | –
4 | 0.29 | Nc1ccccc1CS(=O)(=O)N1CCN(c2cnn(-c3cccc(Cl)c3)c(=O)c2OC2CCCC2)CC1 | – | 0.03 (≈ 0.0551 µM) | 0.35 (≈ 0.643 µM) | –
5 | 0.13 | O=C(O)c1ccc(CS(=O)(=O)N2CCN(c3cnn(-c4cccc(Cl)c4)c(=O)c3OC3CCCC3)CC2)cc1 | – | 25 (≈ 43.6 µM) | > 50 | –
6 | – | CCOCCOc1nn(-c2ccccc2)c(=O)c(OCCOCC)c1N1CCN(S(=O)(=O)Cc2ccccc2)CC1 | 7.16 | 6.25 (≈ 10.7 µM) | > 50 | –
7 | – | CCOCCOc1cc(-c2ccccc2)ccc1N1CCN(S(=O)(=O)Cc2ccccc2)CC1 | 287 | > 50 | > 50 | –
8 | – | Cn1ccc2ccc(S(=O)(=O)N3CCN(c4cnn(-c5cccc(Cl)c5)c(=O)c4OC4CCCC4)CC3)cc21 | 0.282 | 0.2 (≈ 0.352 µM) | – | 0.78 (≈ 1.37 µM)
9 | – | O=c1c(OC2CCCC2)c(N2CCN(S(=O)(=O)c3ccc4ccccc4c3)CC2)cnn1-c1cccc(Cl)c1 | 0.131 | 1.04 (≈ 1.84 µM) | 33.4 (≈ 59.1 µM) | –
10 | – | O=c1c(OC2CCCC2)c(N2CCN(S(=O)(=O)C3CCCC3)CC2)cnn1-c1cccc(Cl)c1 | 1.22 | 0.1 (≈ 0.197 µM) | 3.13 (≈ 6.17 µM) | –
11 | 0.06 | O=c1c(OC2CCCC2)c(N2CCN(S(=O)(=O)Cc3ccncc3)CC2)cnn1-c1cccc(Cl)c1 | – | < 0.02 | 0.2 (≈ 0.377 µM) | –
12 | – | O=c1c(OC2CCCC2)c(N2CCN(S(=O)(=O)CCCc3ccccc3)CC2)cnn1-c1cccc(Cl)c1 | 41.3 | 3.13 (≈ 5.62 µM) | > 50 | –
13 | – | CCCCCCc1c(N2CCN(S(=O)(=O)Cc3ccccc3)CC2)ncn(-c2cccc(Cl)c2)c1=O | 2.48 | – | > 25 | 9 (≈ 17 µM)
14 | – | O=c1c(OC2CCCC2)c(N2CCN(S(=O)(=O)C3Cc4ccccc4C3)CC2)cnn1-c1cccc(Cl)c1 | 0.522 | 0.1 (≈ 0.18 µM) | 1.56 (≈ 2.81 µM) | –
15 | 0.05 | Nc1cccc(CS(=O)(=O)N2CCN(c3cnn(-c4cccc(Cl)c4)c(=O)c3OC3CCCC3)CC2)c1 | – | 0.39 (≈ 0.717 µM) | 3.13 (≈ 5.75 µM) | –
16 | – | CCOCCOc1c(N2CCN(S(=O)(=O)Cc3ccccc3)CC2)c(C)nn(-c2ccccc2)c1=O | 139 | 25 (≈ 48.8 µM) | > 50 | –
17 | – | Cc1ccc(CS(=O)(=O)N2CCN(c3cnn(-c4cccc(Cl)c4)c(=O)c3OC3CCCC3)CC2)cc1 | – | 0.08 (≈ 0.147 µM) | 0.31 (≈ 0.571 µM) | –

Row | AUC(0-t) at 6 h [4] [µg·h/mL] | Structure (SMILES) | IC50 [1] [µM] | MIC [2] [mg/L] | MIC [3] [mg/L] | MIC50 [3] [mg/L]
18 | – | O=c1c(OC2CCCC2)c(N2CCN(S(=O)(=O)Cc3ccc(F)cc3)CC2)cnn1-c1cccc(Cl)c1 | – | 0.05 (≈ 0.0914 µM) | 1.56 (≈ 2.85 µM) | –
19 | – | O=c1c(OC2CCCC2)c(N2CCN(S(=O)(=O)Cc3cccc(B(O)O)c3)CC2)cnn1-c1cccc(Cl)c1 | – | 0.42 (≈ 0.733 µM) | 13.4 (≈ 23.4 µM) | –
20 | – | O=c1c(OC2CCCC2)c(N2CCN(S(=O)(=O)Cc3cccc(C(F)(F)F)c3)CC2)cnn1-c1cccc(Cl)c1 | – | 0.78 (≈ 1.31 µM) | > 50 | –
21 | – | CCOC(=O)c1ccc(CS(=O)(=O)N2CCN(c3cnn(-c4cccc(Cl)c4)c(=O)c3OC3CCCC3)CC2)cc1 | – | 0.78 (≈ 1.3 µM) | 6.25 (≈ 10.4 µM) | –
22 | – | O=c1c(OC2CCCC2)c(N2CCN(S(=O)(=O)Cc3ccsc3)CC2)cnn1-c1cccc(Cl)c1 | 0.411 | 0.02 (≈ 0.0374 µM) | 2.1 (≈ 3.92 µM) | –
23 | – | CCOCCOc1c(N2CCN(S(=O)(=O)Cc3ccccc3)CC2)cnn(-c2ccccc2)c1=O | 1.81 | 0.1 (≈ 0.201 µM) | 3.13 (≈ 6.28 µM) | –
24 | – | COCCS(=O)(=O)N1CCN(c2cnn(-c3cccc(Cl)c3)c(=O)c2OC2CCCC2)CC1 | 0.865 | 0.2 (≈ 0.402 µM) | 3.13 (≈ 6.3 µM) | –
25 | – | O=c1c(-c2ccc(F)cc2)c(N2CCN(S(=O)(=O)Cc3ccccc3)CC2)ccn1-c1ccccc1 | 4.77 | 0.78 (≈ 1.55 µM) | > 50 | –
26 | – | O=c1c(OC2CCCC2)c(N2CCN(S(=O)(=O)CCc3ccccc3)CC2)cnn1-c1cccc(Cl)c1 | 1.47 | 0.08 (≈ 0.147 µM) | 5 (≈ 9.21 µM) | –
27 | – | O=c1c(OC2CCCC2)c(N2CCN(S(=O)(=O)Cc3ccc([N+](=O)[O-])cc3)CC2)cnn1-c1cccc(Cl)c1 | – | 0.05 (≈ 0.0871 µM) | 0.78 (≈ 1.36 µM) | –
28 | – | O=c1c(OC2CCCC2)c(N2CCN(S(=O)(=O)c3ccccc3)CC2)cnn1-c1cccc(Cl)c1 | – | 0.3 (≈ 0.582 µM) | 3.1 (≈ 6.02 µM) | –
29 | – | O=c1c(OC2CCCC2)c(N2CCN(S(=O)(=O)c3ccsc3)CC2)cnn1-c1cccc(Cl)c1 | 0.806 | 0.05 (≈ 0.096 µM) | 0.78 (≈ 1.5 µM) | –
30 | – | O=C(O)CCS(=O)(=O)N1CCN(c2cnn(-c3cccc(Cl)c3)c(=O)c2OC2CCCC2)CC1 | 214 | > 50 | > 50 | –
31 | – | CC(C)(C)S(=O)(=O)N1CCN(c2cnn(-c3cccc(Cl)c3)c(=O)c2OC2CCCC2)CC1 | 0.828 | 0.1 (≈ 0.202 µM) | – | 0.78 (≈ 1.58 µM)
32 | 0.08 | Nc1ccc(CS(=O)(=O)N2CCN(c3cnn(-c4cccc(Cl)c4)c(=O)c3OC3CCCC3)CC2)cc1 | – | 0.2 (≈ 0.368 µM) | 0.78 (≈ 1.43 µM) | –
33 | – | O=c1c(-c2ccc(F)cc2)c(N2CCN(S(=O)(=O)Cc3ccccc3)CC2)cnn1-c1ccccc1 | – | 0.05 (≈ 0.0991 µM) | 6.25 (≈ 12.4 µM) | –
34 | – | O=c1c(OC2CCCC2)c(N2CCN(S(=O)(=O)Cc3noc4ccccc34)CC2)cnn1-c1cccc(Cl)c1 | 0.14 | 0.05 (≈ 0.0877 µM) | 0.78 (≈ 1.37 µM) | –
